Experimental data published in ChEMBL document CHEMBL1201862, “PubChem BioAssay data set” (2004).
Calls of active or inactive are those of the source.

How the values were obtained:
[1] = NIH-3T3 fibroblast cytotoxicity, dose response, cytotoxicity control, cell-based, fluorescence, Alamar Blue, secondary assay (AID 2327); assay type: functional;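 also: NIH-3T3 mouse fibroblasts cultured with fluconazole at 8 µg/mL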
[2] = fluconazole-exposed Candida albicans growth modulators – fluorescence, retest, confirmation (AID 2467); assay type: functional, cell-based
[3] = biological target: Protein disulfide-isomerase (Homo sapiens, UniProt P07237); assay: inhibition of PDI-driven insulin aggregation – biochemical, turbidity, absorbance, cherry-picked samples, dose response (AID 602350); assay type: functional
[4] = biological target: T1, Hepatocyte nuclear factor 4-alpha (Homo sapiens, UniProt P41235); assay type: functional, cell-based;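 also: biochemical luminescence-based dose-response counterscreen measuring inhibition of HNF4 dimerization, run alongside a screen for blockers of ABHD5–perilipin-5 interaction; split luciferase complementation of HNF4 fusion proteins in cell lysate measuring dimerization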
T1 sequence (P41235 whole entry): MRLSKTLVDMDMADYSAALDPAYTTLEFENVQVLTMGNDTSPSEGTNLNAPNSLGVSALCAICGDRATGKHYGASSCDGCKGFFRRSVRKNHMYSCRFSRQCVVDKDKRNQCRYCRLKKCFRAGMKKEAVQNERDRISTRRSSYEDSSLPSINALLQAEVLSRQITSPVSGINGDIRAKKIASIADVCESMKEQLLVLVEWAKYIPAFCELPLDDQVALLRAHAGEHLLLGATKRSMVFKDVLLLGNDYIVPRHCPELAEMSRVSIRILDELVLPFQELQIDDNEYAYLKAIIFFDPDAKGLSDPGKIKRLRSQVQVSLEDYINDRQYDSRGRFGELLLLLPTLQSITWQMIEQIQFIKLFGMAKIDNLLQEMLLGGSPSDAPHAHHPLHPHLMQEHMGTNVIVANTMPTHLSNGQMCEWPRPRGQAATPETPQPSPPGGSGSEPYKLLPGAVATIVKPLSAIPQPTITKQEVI

[5] = suppression of NO production in INS-1E cells – cell-based, Griess absorbance, dry powder, set 3, dose response (AID 488870); assay type: functional; details: Rattus norvegicus
INS1 [6] = assay: suppression of NO production in INS-1E cells – cell-based, Griess absorbance, dry powder, set 2, dose response (AID 488868); assay type: functional; details: Rattus norvegicus
INS1 [7] = assay: cellular ATP toxicity in rat beta cells – cell-based, CellTiter-Glo luminescence, INS-1E, dry powder, cytotoxicity control for beta-cell cytokine protection project, dose response (AID 488864); assay type: functional
CAAX prenyl protease 2 [8] = biological target: T2, CAAX prenyl protease 2 (Saccharomyces cerevisiae S288c, UniProt Q03530); assay type: biochemical
T2 sequence (Q03530 whole entry): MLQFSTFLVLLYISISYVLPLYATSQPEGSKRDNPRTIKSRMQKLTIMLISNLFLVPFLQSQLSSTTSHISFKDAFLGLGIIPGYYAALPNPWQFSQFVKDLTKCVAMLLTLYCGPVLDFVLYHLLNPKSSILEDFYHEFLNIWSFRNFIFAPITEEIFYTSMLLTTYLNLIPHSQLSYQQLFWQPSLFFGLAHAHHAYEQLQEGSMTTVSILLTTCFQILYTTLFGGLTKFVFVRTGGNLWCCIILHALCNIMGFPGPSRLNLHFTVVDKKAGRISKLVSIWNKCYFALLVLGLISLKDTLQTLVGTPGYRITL

[9] = toxicity toward cultured mammalian cells – cell-based, plate reader, cherry-pick samples, cytotoxicity control, dose response (AID 504397); assay type: functional
CAAX prenyl protease 2 [10] = biological target: T2, CAAX prenyl protease 2; assay: inhibition of Rce1p peptide cleavage – biochemical, plate reader, dry powder retest, dose response (AID 588851)
[11] = biological target: Glycogen synthase kinase-3 alpha (Homo sapiens, UniProt P49840); assay type: functional;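 also: GSK3A result taken from a broad kinome-wide kinase panel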
Ephrin type-A receptor 2 = Ephrin type-A receptor 2 (Homo sapiens, UniProt P29317); assay type: functional;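 also: EPHA2 tested as one member of a kinome-wide kinase panel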
Ephrin type-A receptor 2, sequence (P29317 whole entry): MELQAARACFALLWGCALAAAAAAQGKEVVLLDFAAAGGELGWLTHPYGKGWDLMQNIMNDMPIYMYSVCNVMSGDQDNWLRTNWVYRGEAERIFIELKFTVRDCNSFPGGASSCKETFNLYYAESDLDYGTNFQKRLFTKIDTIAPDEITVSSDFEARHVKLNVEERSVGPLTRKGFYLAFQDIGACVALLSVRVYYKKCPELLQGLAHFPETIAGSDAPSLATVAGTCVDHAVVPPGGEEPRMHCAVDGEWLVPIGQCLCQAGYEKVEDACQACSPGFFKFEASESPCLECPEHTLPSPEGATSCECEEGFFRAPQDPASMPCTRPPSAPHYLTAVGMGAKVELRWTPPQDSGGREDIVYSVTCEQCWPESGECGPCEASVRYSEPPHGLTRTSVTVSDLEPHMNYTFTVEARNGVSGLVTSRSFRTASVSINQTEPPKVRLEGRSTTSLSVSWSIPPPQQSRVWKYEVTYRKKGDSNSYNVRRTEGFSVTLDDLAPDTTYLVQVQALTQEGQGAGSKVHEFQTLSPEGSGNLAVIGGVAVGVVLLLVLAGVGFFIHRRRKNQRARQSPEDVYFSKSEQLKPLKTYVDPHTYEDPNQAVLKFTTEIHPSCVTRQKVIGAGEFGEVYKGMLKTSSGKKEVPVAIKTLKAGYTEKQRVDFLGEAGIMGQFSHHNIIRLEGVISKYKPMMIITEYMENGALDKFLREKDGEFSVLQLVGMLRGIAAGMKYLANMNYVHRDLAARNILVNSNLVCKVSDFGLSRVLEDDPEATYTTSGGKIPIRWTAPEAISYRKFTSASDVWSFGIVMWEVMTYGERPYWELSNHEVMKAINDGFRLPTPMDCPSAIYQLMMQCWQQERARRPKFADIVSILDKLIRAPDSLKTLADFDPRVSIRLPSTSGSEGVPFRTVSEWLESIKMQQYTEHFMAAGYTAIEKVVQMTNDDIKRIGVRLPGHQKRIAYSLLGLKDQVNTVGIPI

Protein disulfide-isomerase, sequence (P07237 whole entry, the tested form may be a part): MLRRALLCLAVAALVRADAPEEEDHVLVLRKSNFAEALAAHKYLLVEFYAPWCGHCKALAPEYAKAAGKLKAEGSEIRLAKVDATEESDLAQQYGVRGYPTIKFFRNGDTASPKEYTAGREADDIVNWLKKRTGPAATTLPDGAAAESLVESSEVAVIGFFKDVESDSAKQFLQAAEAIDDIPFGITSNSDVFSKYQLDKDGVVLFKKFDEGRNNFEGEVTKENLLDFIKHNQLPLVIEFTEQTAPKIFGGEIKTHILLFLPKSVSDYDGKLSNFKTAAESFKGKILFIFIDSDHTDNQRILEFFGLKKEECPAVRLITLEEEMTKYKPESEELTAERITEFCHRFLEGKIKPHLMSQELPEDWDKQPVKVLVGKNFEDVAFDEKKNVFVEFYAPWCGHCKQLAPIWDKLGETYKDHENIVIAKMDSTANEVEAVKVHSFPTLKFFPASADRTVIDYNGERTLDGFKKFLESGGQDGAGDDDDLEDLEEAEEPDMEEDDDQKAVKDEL
Glycogen synthase kinase-3 alpha, sequence (P49840 whole entry): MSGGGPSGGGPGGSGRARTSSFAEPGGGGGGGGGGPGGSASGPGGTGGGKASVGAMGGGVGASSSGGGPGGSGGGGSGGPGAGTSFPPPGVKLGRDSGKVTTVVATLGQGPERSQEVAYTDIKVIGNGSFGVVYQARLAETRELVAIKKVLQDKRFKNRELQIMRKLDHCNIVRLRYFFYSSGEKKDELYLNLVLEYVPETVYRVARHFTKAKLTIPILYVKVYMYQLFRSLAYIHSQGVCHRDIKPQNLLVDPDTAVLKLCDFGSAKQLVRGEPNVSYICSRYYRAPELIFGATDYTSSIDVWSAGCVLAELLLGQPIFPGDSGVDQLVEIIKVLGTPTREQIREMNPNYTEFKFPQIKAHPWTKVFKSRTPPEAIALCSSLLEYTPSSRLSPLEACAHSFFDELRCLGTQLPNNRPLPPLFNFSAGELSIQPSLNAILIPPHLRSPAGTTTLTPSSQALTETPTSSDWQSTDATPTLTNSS

In the case of O=C(/C=C/c1ccc(NC(=O)c2ccccc2-c2ccccc2C(=O)O)cc1)c1ccccc1, the EC50 [1] is reported as > 150 µM (inactive), the EC50 [2] is reported as > 38 µM (not active) and the AC50 [3] is reported as 11.4 µM (active). For the same compound, the IC50 [4] was 8.66 µM (active).
In the case of C[C@@H]1CN([C@@H](C)CO)C(=O)c2cccc(NC(=O)Nc3cccc4ccccc34)c2O[C@H]1CN(C)S(=O)(=O)c1ccc(OC(F)(F)F)cc1, the AC50 [5] is reported as 20.3 µM (active), the AC50 (INS1 [6]) is reported as 16.5 µM (active) and the AC50 (INS1 [7]) is reported as 18.5 µM (active).
With Cc1ccc(SCc2c(C(=O)N/N=C/c3ccccc3)nnn2-c2nonc2N)cc1 the AC50 (CAAX prenyl protease 2 [8]) was 141 nM (active), the AC50 [9] was 73 µM (active) and the AC50 (CAAX prenyl protease 2 [10]) was 3.7 µM (active).
In the case of Cc1ccc(NC(=O)c2cnn3c(-c4ccccc4)ccnc23)cc1C, the Ki [11] is reported as 7.94 µM (active) and the Ki (Ephrin type-A receptor 2) is reported as 2 µM (active).
